Experiment [1] has as its system Hepatitis B virus. Put plainly: Inhibitory activity was determined against Hepatitis B virus (HBV) at 10 uM using HepG2-derived 2.2.15 cell lines. The experiment is classed as functional, organism-based.
Experiment [2] relates to Hepatitis B virus. Put plainly: Cytotoxic activity was determined against Hepatitis B virus (HBV) at 10 uM using HepG2-derived 2.2.15 cell lines. The note with it: HepG2 2.2.15. It is filed as functional.

The record followed here is ChEMBL document CHEMBL1134806, “Parallel solid-phase synthesis of nucleoside phosphoramidate libraries” (Bioorg Med Chem Lett, 2001).

As usually defined, the IC50 is the midpoint of a concentration-inhibition curve. Read a low IC50 as greater potency in that assay. Usually CC50 stands for the concentration giving 50% cytotoxicity.

SMILES strings stand for the structures.

The compound `Nc1nc(O)c2ncn([C@H]3C[C@H](O)[C@@H](COP(=O)(O)O[C@@H]4C[C@@H](n5cnc6c(N)ncnc65)O[C@H]4COP(=O)(O)NC4CCCN4)O3)c2n1` (some centres undefined) showed a concentration for half-maximal inhibition (IC50) in the experiment on Hepatitis B virus [1] of 2.1 µM. In the experiment on Hepatitis B virus [2], this compound came in with a CC50 of more than 300 µM.

As to `COc1ccc(CCNP(=O)(O)OC[C@H]2O[C@@H](n3ccc(=O)[nH]c3=O)[C@H](OC)[C@@H]2OP(=O)(O)OC[C@H]2O[C@@H](n3cnc4c(N)ncnc43)C[C@@H]2O)cc1OC`, the midpoint of inhibition with Hepatitis B virus [1], the IC50, lay at 4.4 µM. In the experiment on Hepatitis B virus [2], this compound returned a CC50 of more than 300 µM.
